Counter-ions that a name gives are not always drawn.
Legend:
[1] = tested on: MCP-1; test: MCSF-stimulation of human whole blood, MCP-1 levels by sandwich ELISA; format: cell-based; settings: inhibitor 2 hours before MCSF 50 ng/ml, 22 hrs, MCP-1 in cell-free supernatants, read-out: Inhibitor activity versus MCP-1
Procedure: Macrophage Colony-Stimulating Factor (MCSF)-Stimulation of Human Whole Blood
Whole blood was taken by venous puncture using heparinised vacutainers (Becton Dickinson) and diluted in an equal volume of RPMI1640 tissue culture media (Sigma). 100 μl was plated in V-bottomed 96 well tissue culture treated plates. 2 hours after the addition of the inhibitor in 100 μl of RPMI1640 media, the blood was stimulated with MCSF (Peprotech: #300-25-10 uG) at a final concentration of 50 ng/ml and incubated at 37° C. in 5% CO2 for 22 hrs. MCP-1 levels were measured from cell-free supernatants by sandwich ELISA developed from MCP-1/CCL2 Duoset (R&D Systems #DY279). Additional reagents required for ELISA were purchased from Sigma, (BSA: A3059, 10×PBS: D1408, Tween20: P5927) R&D Systems, (colour reagent: #DY999 and stop solution: #DY994) and Costar (96-well EIA plates: #2592). Assays were carried out following the manufacturer's instructions with the following modifications: Cell-free supernatants were diluted 30:70 in reagent diluent before assay. All incubations except capture antibody were carried out with shaking at 550 rpm. 3 washes were carried out between steps, and incubation times were blocking 1.5 hr, sample/standard and detection antibody incubations 2 hr, HRP incubation 30 min, colour development 20 min. • IC50 values were allocated to one of five ranges as follows: • Range A: IC50<100 nM • Range B: 100 nM<IC50<300 nM • Range C: 300 nM<1050<1000 nM • Range D: 1000 nM<IC50<5000 nM • Range E: IC50>5000 nM • NT=not tested

[2] = target: T1, CSF1R (FMS) (Homo sapiens, UniProt P07333); test: CSF1R (FMS) kinase activity, Z'-LYTE biochemical assay (Invitrogen); settings: ATP at or close to Km, 60 minute reaction at room temperature, read-out: Inhibitor activity versus CSF-1
T1 construct: purchased Invitrogen (Paisley, UK)
T1 sequence (P07333 20-972): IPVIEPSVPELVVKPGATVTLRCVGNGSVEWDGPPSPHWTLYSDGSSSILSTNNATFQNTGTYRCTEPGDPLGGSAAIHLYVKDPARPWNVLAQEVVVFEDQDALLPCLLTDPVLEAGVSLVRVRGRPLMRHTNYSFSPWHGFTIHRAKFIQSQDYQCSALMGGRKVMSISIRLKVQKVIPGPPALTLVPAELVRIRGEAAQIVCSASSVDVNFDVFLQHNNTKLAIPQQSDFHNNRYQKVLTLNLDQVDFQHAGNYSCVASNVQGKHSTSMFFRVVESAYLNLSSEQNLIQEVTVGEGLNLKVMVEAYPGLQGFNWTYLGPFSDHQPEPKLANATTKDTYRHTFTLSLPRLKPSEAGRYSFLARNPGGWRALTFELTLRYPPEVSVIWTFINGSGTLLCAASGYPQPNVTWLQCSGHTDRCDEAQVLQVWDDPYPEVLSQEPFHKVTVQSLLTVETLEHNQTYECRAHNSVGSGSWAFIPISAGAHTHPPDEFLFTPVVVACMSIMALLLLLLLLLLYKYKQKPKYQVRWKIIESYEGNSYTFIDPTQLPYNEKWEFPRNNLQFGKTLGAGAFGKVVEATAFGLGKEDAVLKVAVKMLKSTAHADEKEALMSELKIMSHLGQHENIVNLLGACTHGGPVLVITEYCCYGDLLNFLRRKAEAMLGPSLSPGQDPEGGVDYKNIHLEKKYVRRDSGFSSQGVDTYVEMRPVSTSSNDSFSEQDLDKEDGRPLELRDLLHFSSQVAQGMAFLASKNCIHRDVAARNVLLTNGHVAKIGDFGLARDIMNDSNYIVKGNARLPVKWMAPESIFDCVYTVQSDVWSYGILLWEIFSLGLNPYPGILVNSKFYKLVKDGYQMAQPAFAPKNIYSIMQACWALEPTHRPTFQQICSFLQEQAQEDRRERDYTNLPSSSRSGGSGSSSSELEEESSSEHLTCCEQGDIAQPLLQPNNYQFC
Procedure: CSF1R (FMS) Kinase Activity
The ability of compounds to inhibit CSF1R (FMS) kinase activity was measured in an assay performed by Invitrogen (Paisley, UK). The Z′-LYTE™ biochemical assay employs a fluorescence-based, coupled-enzyme format and is based on the differential sensitivity of phosphorylated and non-phosphorylated peptides to proteolytic cleavage. The peptide substrate is labelled with two fluorophores—one at each end—that make up a FRET pair. In the primary reaction, the kinase transfers the gamma-phosphate of ATP to a single […] residue in a synthetic FRET-peptide. In the secondary reaction, a site-specific protease recognizes and cleaves non-phosphorylated FRET-peptides. Phosphorylation of FRET-peptides suppresses cleavage by the Development Reagent. Cleavage disrupts FRET between the donor (i.e. coumarin) and acceptor (i.e. fluorescein) fluorophores on the FRET-peptide, whereas uncleaved, phosphorylated FRET-peptides maintain FRET. A […] method, which calculates the ratio (the Emission Ratio) of donor emission to acceptor emission after excitation of the donor fluorophore at 400 nm, is used to quantitate reaction progress.
The final 10 μL Kinase Reaction consists of 0.12-12.3 ng CSF1R (FMS), 2 μM Tyr 01 Peptide and ATP in 50 mM HEPES pH 7.5, 0.01% BRIJ-35, 10 mM MgCl2, 1 mM EGTA. The assay is performed at an ATP concentration at, or close to, the Km. After the 60 minute Kinase Reaction incubation at room temperature, 5 μL of a 1:256 dilution of Development Reagent is added. The assay plate is incubated for a further 60 minutes at room temperature and read on a fluorescence plate reader.
Duplicate data points are generated from a ⅓ log dilution series of a stock solution of test compound in DMSO. Nine dilutions steps are made from a top concentration of 10 mM, and a ‘no compound’ blank is included. Data is collected and analysed using XLfit software from IDBS. The dose response curve is curve fitted to model number 205 (sigmoidal dose-response model). From the curve generated, the concentration giving 50% inhibition is determined and reported.

Row | IC50 [1] [nM] | IC50 [2] [nM] | Structure (SMILES)
1 | 300 to 1000 | < 100 | Nc1ncc(-c2ccc(C(=O)NC3CCN[C@@H](C(=O)OC4CCCC4)C3)cc2)nc1NCc1c(Cl)cccc1Cl (stereo partly drawn) [Example 1, Cyclopentyl (2R)-4-[(4-{5-amino-6-[(2,6-dichlorobenzyl)amino]pyrazin-2-yl}benzoyl)amino]piperidine-2-carboxylate]
2 | 300 to 1000 | 100 to 300 | CN(C(=O)c1ccc(-c2cnc(N)c(NCc3c(Cl)cccc3Cl)n2)cc1)C1CCN[C@@H](C(=O)OC2CCCC2)C1 (stereo partly drawn) [Example 2]
3 | 300 to 1000 | 100 to 300 | Nc1ncc(-c2ccc(C(=O)N3CCNC(C(=O)OC4CCCC4)C3)cc2)nc1NCc1c(Cl)cccc1Cl (stereo not drawn) [Example 3, Cyclopentyl 4-(4-{5-amino-6-[(2,6-dichlorobenzyl)amino]pyrazin-2-yl}benzoyl)piperazine-2-carboxylate]
4 |  | 100 to 300 | CC(C)(C)OC(=O)[C@H]1CC(NC(=O)c2ccc(-c3cnc(N)c(NCc4c(Cl)cccc4Cl)n3)cc2)CCN1 (stereo partly drawn) [Example 4, tert-Butyl (2R)-4-[(4-{5-amino-6-[(2,6-dichlorobenzyl)amino]pyrazin-2-yl}benzoyl)amino]piperidine-2-carboxylate]
5 | 1000 to 5000 | < 100 | CN(C(=O)c1ccc(-c2cnc(N)c(NCc3c(Cl)cccc3Cl)n2)cc1)C1CCN[C@@H](C(=O)OC(C)(C)C)C1 (stereo partly drawn) [Example 5, tert-Butyl (2R)-4-[(4-{5-amino-6-[(2,6-dichlorobenzyl)amino]pyrazin-2-yl}benzoyl)(methyl)amino]piperidine-2-carboxylate]
6 | 300 to 1000 | 100 to 300 | CC(C)(C)OC(=O)C1CN(C(=O)c2ccc(-c3cnc(N)c(NCc4c(Cl)cccc4Cl)n3)cc2)CCN1 (stereo not drawn) [Example 6, tert-Butyl 4-(4-{5-amino-6-[(2,6-dichlorobenzyl)amino]pyrazin-2-yl}benzoyl)piperazine-2-carboxylate]
7 | 100 to 300 | < 100 | Nc1ncc(-c2ccc(CNC3CCN[C@@H](C(=O)OC4CCCC4)C3)cc2)nc1NCc1c(Cl)cccc1Cl (stereo partly drawn) [Example 7, Cyclopentyl (2R)-4-[(4-{5-amino-6-[(2,6-dichlorobenzyl)amino]pyrazin-2-yl}benzyl)amino]piperidine-2-carboxylate]
8 | 100 to 300 | < 100 | Nc1ncc(-c2ccc(CNC3CCN[C@H](C(=O)OC4CCCC4)C3)cc2)nc1NCc1c(Cl)cccc1Cl (stereo partly drawn) [Example 8, Cyclopentyl (2S)-4-[(4-{5-amino-6-[(2,6-dichlorobenzyl)amino]pyrazin-2-yl}benzyl)amino]piperidine-2-carboxylate]
9 | < 100 | 300 to 1000 | Nc1ncc(-c2ccc(CN3CCNC(C(=O)OC4CCCC4)C3)cc2)nc1NCc1c(Cl)cccc1Cl (stereo not drawn) [Example 9, Cyclopentyl 4-(4-{5-amino-6-[(2,6-dichlorobenzyl)amino]pyrazin-2-yl}benzyl)piperazine-2-carboxylate]
10 | < 100 | 1000 to 5000 | Nc1ncc(-c2ccc(CN3CCN[C@H](C(=O)OC4CCCC4)C3)cc2)nc1NCc1c(Cl)cccc1Cl [Example 10, Cyclopentyl (2S)-4-(4-{5-amino-6-[(2,6-dichlorobenzyl)amino]pyrazin-2-yl}benzyl)piperazine-2-carboxylate]
11 | < 100 | 300 to 1000 | Nc1ncc(-c2ccc(CN3CCN[C@@H](C(=O)OC4CCCC4)C3)cc2)nc1NCc1c(Cl)cccc1Cl [Example 11, Cyclopentyl (2R)-4-(4-{5-amino-6-[(2,6-dichlorobenzyl)amino]pyrazin-2-yl}benzyl)piperazine-2-carboxylate]
12 |  | > 5000 | CC(C)C[C@H](NCc1ccc(-c2cnc(N)c(NCc3c(Cl)cccc3Cl)n2)cc1)C(=O)OC1CCCC1 [Example 12, Cyclopentyl N-(4-{5-amino-6-[(2,6-dichlorobenzyl)amino]pyrazin-2-yl}benzyl)-L-leucinate]
13 |  | 1000 to 5000 | CC(C)C[C@H](NCc1ccc(-c2cnc(N)c(NCc3c(Cl)cccc3Cl)n2)cc1)C(=O)OC(C)(C)C [Example 13, tert-Butyl N-(4-{5-amino-6-[(2,6-dichlorobenzyl)amino]pyrazin-2-yl}benzyl)-L-leucinate]
14 |  | > 5000 | CC(C)C[C@H](NCc1ccc(-c2cnc(N)c(NCc3c(F)cccc3F)n2)cc1)C(=O)OC1CCCC1 [Example 15, Cyclopentyl N-(4-{5-amino-6-[(2,6-difluorobenzyl)amino]pyrazin-2-yl}benzyl)-L-leucinate]
15 |  | 1000 to 5000 | CC(C)C[C@H](NCc1ccc(-c2cnc(N)c(NCc3c(F)cccc3F)n2)cc1)C(=O)OC(C)(C)C [Example 16, tert-Butyl N-(4-{5-amino-6-[(2,6-difluorobenzyl)amino]pyrazin-2-yl}benzyl)-L-leucinate]
16 |  | < 100 | Nc1ncc(-c2ccc(CNC3CCN[C@@H](C(=O)OC4CCCC4)C3)cc2)nc1NCc1c(F)cccc1Cl (stereo partly drawn) [Example 17, Cyclopentyl (2R)-4-[(4-{5-amino-6-[(2-chloro-6-fluorobenzyl)amino]pyrazin-2-yl}benzyl)amino]piperidine-2-carboxylate]
17 |  | 300 to 1000 | CC(C)(C)OC(=O)[C@H]1CC(NCc2ccc(-c3cnc(N)c(NCc4c(F)cccc4F)n3)cc2)CCN1 (stereo partly drawn) [Example 24, tert-Butyl (2R)-4-[(4-{5-amino-6-[(2,6-difluorobenzyl)amino]pyrazin-2-yl}benzyl)amino]piperidine-2-carboxylate]
18 | 1000 to 5000 |  | CC(C)CN(Cc1ccc(-c2cnc(N)c(NCc3c(Cl)cccc3Cl)n2)cc1)C1CCN[C@@H](C(=O)OC2CCCC2)C1 (stereo partly drawn) [Example 29, Cyclopentyl (2R)-4-[(4-{5-amino-6-[(2,6-dichlorobenzyl)amino]pyrazin-2-yl}benzyl)(2-methylpropyl)amino]piperidine-2-carboxylate]
19 |  | 1000 to 5000 | CC(C)(C)OC(=O)C(C)(C)NCc1cccc(-c2cnc(N)c(NCc3c(Cl)cccc3Cl)n2)c1 [Example 41, tert-Butyl N-(3-{5-amino-6-[(2,6-dichlorobenzyl)amino]pyrazin-2-yl}benzyl)-2-methylalaninate formate salt]
20 | 100 to 300 |  | Nc1ncc(-c2cccc(CCN3CCNC(C(=O)OC4CCCC4)C3)c2)nc1NCc1c(Cl)cccc1Cl (stereo not drawn) [Example 52, Cyclopentyl 4-[2-(3-{5-amino-6-[(2,6-dichlorobenzyl)amino]pyrazin-2-yl}phenyl)ethyl]piperazine-2-carboxylate]
21 |  | 100 to 300 | Nc1ncc(-c2cnn(CC(=O)NC3CCN[C@@H](C(=O)OC4CCCC4)C3)c2)nc1NCc1c(Cl)cccc1Cl (stereo partly drawn) [Example 53, Cyclopentyl (2R)-4-{[(4-{5-amino-6-[(2,6-dichlorobenzyl)amino]pyrazin-2-yl}-1H-pyrazol-1-yl)acetyl]amino}piperidine-2-carboxylate]
22 |  | 100 to 300 | CC(C)(C)OC(=O)[C@H]1CC(NC(=O)Cn2cc(-c3cnc(N)c(NCc4c(Cl)cccc4Cl)n3)cn2)CCN1 (stereo partly drawn) [Example 54, tert-Butyl (2R)-4-{[(4-{5-amino-6-[(2,6-dichlorobenzyl)amino]pyrazin-2-yl}-1H-pyrazol-1-yl)acetyl]amino}piperidine-2-carboxylate]
23 |  | 100 to 300 | Nc1ncc(-c2ccc(CN3CCNC(C(=O)OC4CCCC4)C3)nc2)nc1NCc1c(Cl)cccc1Cl (stereo not drawn) [Example 59, Cyclopentyl 4-[(5-{5-amino-6-[(2,6-dichlorobenzyl)amino]pyrazin-2-yl}pyridin-2-yl)methyl]piperazine-2-carboxylate]
